From patent US11339136B2 (Novartis AG, priority 2016, dated 2022) come the findings set out here.

The test has as its target T1, hNLRP3 (Homo sapiens, UniProt Q96P20).
T1 construct: THP-1 cells were purchased from the American Type Culture Collection; host or cells: THP-1 cells, PMA-differentiated
As to the kind of experiment: IL-1β production in PMA-differentiated THP-1 cells stimulated with gramicidin. As to conditions: gramicidin 5 μM, IL-1β in supernatant, Table 2. In kind it is cell-based. Summed up: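 THP-1 cells differentiated with PMA (10 μg/ml, 24 h, or 20 ng/ml, 16-18 h), replated in 2% FBS RPMI and preincubated with compound for 1 h before 5 μM gramicidin for 2 h. Supernatant IL-1β measured by ELISA (1% DMSO) or HTRF (0.38% DMSO).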

SMILES strings stand for the structures.

T1 sequence (Q96P20 whole entry): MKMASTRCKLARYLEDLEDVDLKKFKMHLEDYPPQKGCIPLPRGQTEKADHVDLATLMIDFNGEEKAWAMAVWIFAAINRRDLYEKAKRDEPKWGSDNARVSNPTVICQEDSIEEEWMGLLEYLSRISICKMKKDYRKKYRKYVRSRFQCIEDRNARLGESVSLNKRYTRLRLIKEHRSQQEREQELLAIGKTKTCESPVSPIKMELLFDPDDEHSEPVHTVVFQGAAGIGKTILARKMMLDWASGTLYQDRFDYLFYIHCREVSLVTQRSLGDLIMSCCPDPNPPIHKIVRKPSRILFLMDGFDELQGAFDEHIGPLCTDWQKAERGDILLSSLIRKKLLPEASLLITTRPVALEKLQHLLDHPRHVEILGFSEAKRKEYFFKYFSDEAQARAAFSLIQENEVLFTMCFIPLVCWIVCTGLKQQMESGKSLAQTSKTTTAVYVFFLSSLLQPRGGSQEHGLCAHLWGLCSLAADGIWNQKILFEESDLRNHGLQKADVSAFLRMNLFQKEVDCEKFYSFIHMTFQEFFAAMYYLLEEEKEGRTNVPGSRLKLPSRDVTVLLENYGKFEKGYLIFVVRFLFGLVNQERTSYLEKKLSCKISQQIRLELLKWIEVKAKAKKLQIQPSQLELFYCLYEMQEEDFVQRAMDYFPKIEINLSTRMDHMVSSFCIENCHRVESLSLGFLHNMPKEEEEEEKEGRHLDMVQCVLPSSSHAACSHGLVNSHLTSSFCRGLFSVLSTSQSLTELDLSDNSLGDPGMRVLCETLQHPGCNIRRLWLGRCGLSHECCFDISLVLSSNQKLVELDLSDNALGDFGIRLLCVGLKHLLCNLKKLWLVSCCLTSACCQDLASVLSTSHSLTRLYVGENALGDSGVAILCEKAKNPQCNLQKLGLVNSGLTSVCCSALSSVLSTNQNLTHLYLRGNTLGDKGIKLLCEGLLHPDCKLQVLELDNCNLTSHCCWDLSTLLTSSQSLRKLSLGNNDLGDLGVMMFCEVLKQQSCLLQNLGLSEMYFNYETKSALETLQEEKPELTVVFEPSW

`CC(C)c1cc(Cl)cc(C(C)C)c1NC(=O)NS(=O)(=O)c1cc(C(C)(C)O)c(Cl)s1` [Compound 254, 5-chloro-N-(4-chloro-2,6-diisopropylphenyl-carbamoyl)-4-(2-hydroxypropan-2-yl)thiophene-2-sulfonamide] yielded an IC50 of less than 1 µM. The same measure for `CC(C)(O)c1cc(S(=O)(=O)NC(=O)Nc2c3c(cc4c2CCC4)CCC3)oc1Cl` [Compound 255, 5-chloro-N-(1,2,3,5,6,7-hexahydros-indacen-4-ylcarbamoyl)-4-(2-hydroxypropan-2-yl)furan-2-sulfonamide]: less than 1 µM; for `CC(C)c1cc(F)cc(C(C)C)c1NC(=O)NS(=O)(=O)c1ccc(C(C)(C)O)s1` [Compound 257]: less than 1 µM. Molecule `CC(C)c1cccc(C(C)C)c1NC(=O)NS(=O)(=O)c1ncc(C(C)(C)O)s1` [Compound 261] had an IC50 of 1 to 5 µM. Turning to `CC(C)c1ccc(C#N)c(C(C)C)c1NC(=O)NS(=O)(=O)c1cc(C(C)(C)O)cs1` [Compound 262, N-(3-cyano-2,6-diisopropylphenylcarbamoyl)-4-(2-hydroxypropan-2-yl) thiophene-2-sulfonamide], the IC50 lay within 1 to 5 µM. `CC(C)c1ccc(C#N)c(C(C)C)c1NC(=O)NS(=O)(=O)c1ncc(C(C)(C)O)s1` [Compound 263, N-(3-cyano-2,6-diisopropylphenylcarbamoyl)-5-(2-hydroxypropan-2-yl) thiazole-2-sulfonamide]: the IC50 lay within 1 to 5 µM. `Cc1sc(S(=O)(=O)NC(=O)Nc2c(C(C)C)ccc(C#N)c2C(C)C)cc1C(C)(C)O` [Compound 264, N-(3-cyano-2,6-diisopropylphenylcarbamoyl)-4-(2-hydroxypropan-2-yl)-5-methylthiophene-2-sulfonamide]: the IC50 lay within 5 to 15 µM. The value for `CC(C)c1ccc(C#N)c(C(C)C)c1NC(=O)NS(=O)(=O)c1cc(C(C)(C)O)c(Cl)s1` [Compound 265, 5-chloro-N-(3-cyano-2,6-diisopropylphenylcarbamoyl)-4-(2-hydroxypropan-2-yl) thiophene-2-sulfonamide] was 5 to 15 µM; that for `CC(C)(O)c1ncsc1S(=O)(=O)NC(=O)Nc1c2c(cc3c1CCC3)CCC2` [Compound 266] was 1 to 5 µM; that for `CC(C)c1cc(C#N)cc(C(C)C)c1NC(=O)NS(=O)(=O)c1cnc(C(C)(C)O)s1` [Compound 267] was 1 to 5 µM. In turn, `CC(C)(O)c1ncsc1S(=O)(=O)NC(=O)Nc1c2c(c(F)c3c1CCC3)CCC2` [Compound 268] displayed an IC50 of 1 to 5 µM. The same measure for `CC(C)c1cc(F)cc(C(C)C)c1NC(=O)NS(=O)(=O)c1cnc(C(C)(C)O)s1` [Compound 269]: 1 to 5 µM; for `CC(C)c1cccc(C(C)C)c1NC(=O)NS(=O)(=O)c1cnc(C(C)(C)O)s1` [Compound 270]: 1 to 5 µM. For the molecule `CC(C)c1ccc(Cl)c(C(C)C)c1NC(=O)NS(=O)(=O)c1cnc(C(C)(C)O)s1` [Compound 271], the IC50 fell in the range of 1 to 5 µM. For the molecule `Cc1cc(C(C)C)c(NC(=O)NS(=O)(=O)c2cnc(C(C)(C)O)s2)c(C(C)C)c1` [Compound 272], the IC50 was 1 to 5 µM. Molecule `CC(C)(O)c1ncsc1S(=O)(=O)NC(=O)Nc1c2c(c(Cl)c3c1CCC3)CCC2` [Compound 273] showed an IC50 of 5 to 15 µM. Molecule `CC(C)c1ccc(F)c(C(C)C)c1NC(=O)NS(=O)(=O)c1cnc(C(C)(C)O)s1` [Compound 274] came in with an IC50 of 5 to 15 µM.

One may read the IC50 as the concentration that inhibits the measured activity by half.
